Legend:
hairless mouse (HR-1) = assay: Parakeratosis-inhibiting effect test (oleic acid applied to back of hairless mouse; visual rough skin evaluation and parakeratosis value); assay type: in vivo; conditions: for parakeratosis-inhibiting effect: in words, summary of Table 1; for Visual evaluation (average of four animals): rough skin score, control = 2.0, no skin roughness = 0.0, 3 days application after 10 mass % oleic acid; for Parakeratosis value (average of four animals): scale 1.0 to 3.0, higher = parakeratosis advanced, control 2.0
Experimental: Aqueous solutions (containing 30 mass % of ethanol) of 3 mass % of a β-alanine derivative or salt thereof were prepared mainly as the evaluation sample. The pH was regulated by hydrochloric acid or sodium hydroxide so as to be 7.0 to 7.5. When sample solubility was low, the solution was prepared accordingly.
100 μL of 10 mass % oleic acid solution (solvent: ethanol) were applied to the back of a hairless mouse (HR-1; Hoshino Laboratory Animals). Then the sample solution (β-alanine derivative, and the like) was applied 100 μL at a time. This procedure was continued for three days. […] At the same time, the stratum corneum at the back of the hairless mouse was peeled off with tape, the nuclei were stained by hematoxylin, and the degree of parakeratosis was observed and evaluated by a parakeratosis value within a range of 1.0 to 3.0 (in 0.25 increments).

[1] = test system: cheeks of healthy human males; assay: Human pore-shrinking effect (replica of cheek pores, three-dimensional laser scanning microscope); assay type: in vivo; conditions: for pore-shrinking effect: in words, summary of Table 2; for Replica assessment value (average of n = 5): twice a day for one month, pore size rating (1-13) after minus before application, control 0.3
Experimental: An experiment was conducted whereby a sample was applied twice a day for one month to the cheeks of healthy human males in groups of 5 men each. Aqueous solutions (containing 15 mass % of ethanol) of 3 mass % of the β-alanine derivative or a salt thereof were prepared mainly as the evaluation sample. The pH was regulated by hydrochloric acid or sodium hydroxide so as to be 7.0 to 7.5. When the sample solubility was low, the solution was prepared accordingly. The control was an aqueous 15% ethanol solution. The sample aqueous solution and the control aqueous solution were applied to one half of the face at a time.
A replica was collected before and after continuous application, and changes in the shape of the pores at the same site were observed using a three-dimensional laser scanning microscope. The size of the pores was visually evaluated in the 13 steps of 1 through 13 (with the pores becoming larger as the numbers became larger), the difference in the ratings before and after application (after application—before application) was calculated, and the efficacy of each sample was studied using this difference as the replica assessment value.

hairless mice (HR-1) = assay: Inhibiting effect on rough skin induced by oleic acid application (transepidermal water loss); assay type: in vivo, mouse; design: ΔTEWL value: unit not given here; conditions: for rough skin preventing/ameliorating effect (ΔTEWL value versus control aqueous solution): in words, summary of Table 3; for ΔTEWL value: average of four mice, 3 days after 10 mass % oleic acid, control 12.0, increase = rough skin worse
Experimental: In order to investigate the inhibiting effect of β-alanine derivatives and salts thereof on rough skin induced by oleic acid application, the transepidermal water loss (TEWL value) before and after application was measured, the difference was compared with the control (control aqueous solution), and the effect was determined. […] The TEWL was determined using the TM210 TEWA Meter (Courage+Khazaka Electronic GmBH).
100 μL of 10 mass % oleic acid (solvent: ethanol) was applied to the back of hairless mice (HR-1, four mice per group). Then a sample solution (β-alanine derivatives) was applied 100 μL at a time. This procedure was continued for three days. On the following day, the TEWL value of the back was determined and the values of the four animals were averaged.

panel of 20 women = assay: Sensory irritation tests; assay type: in vivo, human; conditions: for sensory irritation: in words, summary of Table 4; for Evaluation (sensory irritation, class of average rating): 1 mL to cheek, rated for ten minutes
Experimental: 1 mL of a control aqueous solution and the sample aqueous solution prepared in Example 1 were applied using a cotton swab to the left or right cheek, respectively, of each member of a panel of 20 women, and the irritating sensation was evaluated every 30 seconds for ten minutes beginning immediately after application, whereby a final evaluation was reported. The evaluation of the irritating sensation was made based on the following four levels of rating criteria, and the average rating was calculated, whereby the average was classified by the following criteria.
3: Continuation is not possible because of extremely strong irritation, such as tingling sensation, burning sensation, stinging sensation, itching, and the like.
2: Intolerable because of strong irritation, such as tingling sensation, burning sensation, stinging sensation, itching, and the like.
1: Tolerable, but with slight irritation such as tingling sensation, burning sensation, stinging sensation, itching, and the like.
0: Not particularly irritating.
(Evaluation Criteria) • A: average rating of less than 0.2 • B: average rating of from 0.2 to less than 1.0 • C: average rating of from 1.0 to less than 2.0 • D: average rating of 2.0 or greater

O=C(O)CCNS(=O)(=O)c1ccccc1 [N-benzenesulfonyl-β-alanine]
parakeratosis-inhibiting effect (hairless mouse (HR-1)): reduced the parakeratosis value | Visual evaluation (average of four animals) (hairless mouse (HR-1); sample 3 mass %): 1.1 | Parakeratosis value (average of four animals) (hairless mouse (HR-1); sample 3 mass %): 1.2 | pore-shrinking effect [1]: effect was seen | Replica assessment value (average of n = 5) ([1]; sample 3 mass %): −0.7 | rough skin preventing/ameliorating effect (ΔTEWL value versus control aqueous solution) (hairless mice (HR-1)): effect was seen | ΔTEWL value (hairless mice (HR-1); sample 3 mass %): 5.4 | sensory irritation (panel of 20 women): no problem of sensory irritation | Evaluation (sensory irritation, class of average rating) (panel of 20 women; sample 3 mass %): A (average rating of less than 0.2)

CN(CCC(=O)O)C1CCCCC1 [N-cyclohexyl-N-methyl-β-alanine]
parakeratosis-inhibiting effect (hairless mouse (HR-1)): reduced the parakeratosis value | Visual evaluation (average of four animals) (hairless mouse (HR-1); sample 3 mass %): 1.4 | Parakeratosis value (average of four animals) (hairless mouse (HR-1); sample 3 mass %): 1.4 | pore-shrinking effect [1]: effect was seen | Replica assessment value (average of n = 5) ([1]; sample 3 mass %): −0.8 | rough skin preventing/ameliorating effect (ΔTEWL value versus control aqueous solution) (hairless mice (HR-1)): effect was seen | ΔTEWL value (hairless mice (HR-1); sample 3 mass %): 5.5 | sensory irritation (panel of 20 women): no problem of sensory irritation | Evaluation (sensory irritation, class of average rating) (panel of 20 women; sample 3 mass %): A (average rating of less than 0.2)

O=C(O)CCNC(=O)C1CCCCC1 [N-cyclohexylcarbonyl-β-alanine]
parakeratosis-inhibiting effect (hairless mouse (HR-1)): reduced the parakeratosis value | Visual evaluation (average of four animals) (hairless mouse (HR-1); sample 3 mass %): 1.1 | Parakeratosis value (average of four animals) (hairless mouse (HR-1); sample 3 mass %): 1.2 | pore-shrinking effect [1]: effect was seen | Replica assessment value (average of n = 5) ([1]; sample 3 mass %): −0.6 | rough skin preventing/ameliorating effect (ΔTEWL value versus control aqueous solution) (hairless mice (HR-1)): effect was seen | ΔTEWL value (hairless mice (HR-1); sample 3 mass %): 8.0 | sensory irritation (panel of 20 women): no problem of sensory irritation | Evaluation (sensory irritation, class of average rating) (panel of 20 women; sample 3 mass %): A (average rating of less than 0.2)

O=C(O)CCN1CCCCC1 [3-(1′-piperidine)-propionate, 3-(1′-piperidine)-propionic acid]
parakeratosis-inhibiting effect (hairless mouse (HR-1)): reduced the parakeratosis value | Visual evaluation (average of four animals) (hairless mouse (HR-1); sample 3 mass %): 1.4 | Parakeratosis value (average of four animals) (hairless mouse (HR-1); sample 3 mass %): 1.4 | pore-shrinking effect [1]: effect was seen | Replica assessment value (average of n = 5) ([1]; sample 3 mass %): −1.2 | rough skin preventing/ameliorating effect (ΔTEWL value versus control aqueous solution) (hairless mice (HR-1)): effect was seen | ΔTEWL value (hairless mice (HR-1); sample 3 mass %): 5.5 | sensory irritation (panel of 20 women): no problem of sensory irritation | Evaluation (sensory irritation, class of average rating) (panel of 20 women; sample 3 mass %): A (average rating of less than 0.2)

COc1cccc(C(=O)NCCC(=O)O)c1 [N-(3′-methoxybenzoyl)-β-alanine]
parakeratosis-inhibiting effect (hairless mouse (HR-1)): reduced the parakeratosis value | Visual evaluation (average of four animals) (hairless mouse (HR-1); sample 3 mass %): 1.2 | Parakeratosis value (average of four animals) (hairless mouse (HR-1); sample 3 mass %): 1.2 | pore-shrinking effect [1]: effect was seen | Replica assessment value (average of n = 5) ([1]; sample 3 mass %): −1.0 | rough skin preventing/ameliorating effect (ΔTEWL value versus control aqueous solution) (hairless mice (HR-1)): effect was seen | ΔTEWL value (hairless mice (HR-1); sample 3 mass %): 6.9 | sensory irritation (panel of 20 women): no problem of sensory irritation | Evaluation (sensory irritation, class of average rating) (panel of 20 women; sample 3 mass %): A (average rating of less than 0.2)

COc1cc(C(=O)NCCC(=O)O)cc(OC)c1OC [N-(3′,4′,5′-trimethoxybenzoyl)-β-alanine]
parakeratosis-inhibiting effect (hairless mouse (HR-1)): reduced the parakeratosis value | Visual evaluation (average of four animals) (hairless mouse (HR-1); sample 3 mass %): 1.1 | Parakeratosis value (average of four animals) (hairless mouse (HR-1); sample 3 mass %): 1.1 | pore-shrinking effect [1]: effect was seen | Replica assessment value (average of n = 5) ([1]; sample 3 mass %): −0.6 | rough skin preventing/ameliorating effect (ΔTEWL value versus control aqueous solution) (hairless mice (HR-1)): effect was seen | ΔTEWL value (hairless mice (HR-1); sample 3 mass %): 6.9 | sensory irritation (panel of 20 women): no problem of sensory irritation | Evaluation (sensory irritation, class of average rating) (panel of 20 women; sample 3 mass %): A (average rating of less than 0.2)

O=C(O)CCNC(=O)c1cccnc1 [N-nicotinoyl-β-alanine]
parakeratosis-inhibiting effect (hairless mouse (HR-1)): reduced the parakeratosis value | Visual evaluation (average of four animals) (hairless mouse (HR-1); sample 1 mass %): 1.1 | Parakeratosis value (average of four animals) (hairless mouse (HR-1); sample 1 mass %): 1.2 | pore-shrinking effect [1]: effect was seen | Replica assessment value (average of n = 5) ([1]; sample 1.0 mass %): −0.8 | rough skin preventing/ameliorating effect (ΔTEWL value versus control aqueous solution) (hairless mice (HR-1)): effect was seen | ΔTEWL value (hairless mice (HR-1); sample 1 mass %): 6.0 | sensory irritation (panel of 20 women): no problem of sensory irritation | Evaluation (sensory irritation, class of average rating) (panel of 20 women; sample 1 mass %): A (average rating of less than 0.2)

COc1ccc(C(=O)NCCC(=O)O)cc1 [N-(4′-methoxybenzoyl)-β-alanine]
parakeratosis-inhibiting effect (hairless mouse (HR-1)): reduced the parakeratosis value | Visual evaluation (average of four animals) (hairless mouse (HR-1); sample 1.5 mass %): 1.2 | Parakeratosis value (average of four animals) (hairless mouse (HR-1); sample 1.5 mass %): 1.1 | pore-shrinking effect [1]: effect was seen | Replica assessment value (average of n = 5) ([1]; sample 1.0 mass %): −1.2 | rough skin preventing/ameliorating effect (ΔTEWL value versus control aqueous solution) (hairless mice (HR-1)): effect was seen | ΔTEWL value (hairless mice (HR-1); sample 1.5 mass %): 5.7 | sensory irritation (panel of 20 women): no problem of sensory irritation | Evaluation (sensory irritation, class of average rating) (panel of 20 women; sample 1.5 mass %): A (average rating of less than 0.2)

Cl.NCCC(N)=O [β-alanine amide hydrochloride salt]
parakeratosis-inhibiting effect (hairless mouse (HR-1)): reduced the parakeratosis value | Visual evaluation (average of four animals) (hairless mouse (HR-1); sample 3 mass %): 1.3 | Parakeratosis value (average of four animals) (hairless mouse (HR-1); sample 3 mass %): 1.3 | pore-shrinking effect [1]: effect was seen | Replica assessment value (average of n = 5) ([1]; sample 3 mass %): −0.3 | rough skin preventing/ameliorating effect (ΔTEWL value versus control aqueous solution) (hairless mice (HR-1)): effect was seen | ΔTEWL value (hairless mice (HR-1); sample 3 mass %): 8.9 | sensory irritation (panel of 20 women): no problem of sensory irritation | Evaluation (sensory irritation, class of average rating) (panel of 20 women; sample 3 mass %): A (average rating of less than 0.2)

COc1ccccc1C(=O)NCCC(=O)O [N-(2′-methoxybenzoyl)-β-alanine]
parakeratosis-inhibiting effect (hairless mouse (HR-1)): reduced the parakeratosis value | Visual evaluation (average of four animals) (hairless mouse (HR-1); sample 3 mass %): 1.1 | Parakeratosis value (average of four animals) (hairless mouse (HR-1); sample 3 mass %): 1.1 | pore-shrinking effect [1]: effect was seen | Replica assessment value (average of n = 5) ([1]; sample 3 mass %): −0.9 | rough skin preventing/ameliorating effect (ΔTEWL value versus control aqueous solution) (hairless mice (HR-1)): effect was seen | ΔTEWL value (hairless mice (HR-1); sample 3 mass %): 7.0 | sensory irritation (panel of 20 women): no problem of sensory irritation | Evaluation (sensory irritation, class of average rating) (panel of 20 women; sample 3 mass %): A (average rating of less than 0.2)

C[C@H](N)C(=O)O [alanine, reference compound]
sensory irritation (panel of 20 women): strong sensory irritation | Evaluation (sensory irritation, class of average rating) (panel of 20 women; sample 3 mass %): D (average rating of 2.0 or greater)

NC(=O)NCCC(=O)O [3-ureidopropionic acid, reference compound]
parakeratosis-inhibiting effect (hairless mouse (HR-1)): effect was not seen | Visual evaluation (average of four animals) (hairless mouse (HR-1); sample 3 mass %): 2.0 | Parakeratosis value (average of four animals) (hairless mouse (HR-1); sample 3 mass %): 2.2 | rough skin preventing/ameliorating effect (ΔTEWL value versus control aqueous solution) (hairless mice (HR-1)): no effect was seen | ΔTEWL value (hairless mice (HR-1); sample 3 mass %): 11.9

N=C(N)NCCC(=O)O [3-guanidinopropionic acid, reference compound]
parakeratosis-inhibiting effect (hairless mouse (HR-1)): effect was not seen | Visual evaluation (average of four animals) (hairless mouse (HR-1); sample 3 mass %): 2.1 | Parakeratosis value (average of four animals) (hairless mouse (HR-1); sample 3 mass %): 2.1 | rough skin preventing/ameliorating effect (ΔTEWL value versus control aqueous solution) (hairless mice (HR-1)): no effect was seen | ΔTEWL value (hairless mice (HR-1); sample 3 mass %): 12.3

CC(=O)NCCC(=O)O [N-acetyl-β-alanine, reference compound]
parakeratosis-inhibiting effect (hairless mouse (HR-1)): effect was not seen | Visual evaluation (average of four animals) (hairless mouse (HR-1); sample 3 mass %): 1.8 | Parakeratosis value (average of four animals) (hairless mouse (HR-1); sample 3 mass %): 1.7 | rough skin preventing/ameliorating effect (ΔTEWL value versus control aqueous solution) (hairless mice (HR-1)): no effect was seen | ΔTEWL value (hairless mice (HR-1); sample 3 mass %): 12.1

Source: patent US8937090B2, “Parakeratosis inhibitor, pore-shrinking agent and external composition for skin” (Shiseido Company, Ltd., priority 2005, dated 2015)
